Laboratory results as given in patent US20240116999A1, “CONFORMATIONALLY CONSTRAINED GLUCAGON ANALOGUES AND THEIR USE IN GLUCAGON-SINGLE CHAIN INSULIN FUSION PROTEINS” (THE TRUSTEES OF INDIANA UNIVERSITY, priority 2021, published 2024).
pEC50: −log10 of the molar value. Values belong to the compound of their own block, whether it stands above or below them. Bridge positions count the residues as written; N and C are the ends. Square brackets hold non-standard residues; d marks the D form. Ends that are not written are not given here. Peptide text beside a SMILES is read from it. Orn = NCCC[C@H](N)C(=O)O

Legend:
[1] = Thioflavin T (ThT) fibrillation assay; format: physicochemical; details: for formation of amyloid-like fibrils: FIG. 15, month-long assay, 100 μM, pH 7.4, 37° C.; for fibril formation: FIG. 5, relative to native glucagon
Procedure: Fibrillation Assays. We employed an automated plate-based fluorescent device to monitor the time course of peptide fibrillation using a Thioflavin T (ThT) assay. This assay is based on the THT fluorescence emission at 480 nm upon binding to mature fibrils when excited at 440 nm. The assay was performed by preparing stock solutions of the fusion protein and the individual peptides in either NaCl 0.9% (pH 2.5) or PBS (pH 7.4). Our experience has identified 100-μM final concentration as optimal fibrillation conditions for glucagon analogues. Stock solutions were diluted with NaCl 0.9% or 1X PBS buffer, pH adjusted (with 1N HCl or 1N NaOH) mixed with Thioflavin-T (THT) at a final concentration of 16 μM, centrifuged, and 250 μl of the sample were placed on a 96-well plate with 4-10 technical replicates. Measurements were done every 15 minutes and the sample agitated at 1096 cpm at 37° C. on a Synergy H1 microplate reader (BioTek, Winooski, VT). The lag time, defined as the time-point at which fibrillation starts its exponential phase, was considered as the point at which fluorescence was 3 times the background signal.

glucagon receptor = glucagon receptor (Homo sapiens, UniProt P47871); test: Cell-based cyclic AMP (cAMP) activity assay; details: for pEC50: FIG. 8B, HEK-293 cells overexpressing glucagon receptor, read-out: EC50 (cAMP production)
Procedure: Cell-based Activity Assays. We generated a cAMP assay on HepG2 cells transiently transfected with the glucagon receptor (GCGR). The GCGR gene with C-terminal Flag tag was synthesized and ligated to a pcDNA 3.1 vector by Genscript. A plate of HepG2 cells was grown to 70% confluence and then transfected with 15 μg plasmid. […] Then, cAMP was measured following the instructions of the LANCETM Ultra cAMP Kit (PerkingElmer) using 3 technical replicates per point. This is a TR-FRET assay based on the competition between a europium-labeled cAMP and sample cAMP for binding to cAMP-specific labeled antibodies. In the LANCE cAMP assay, a higher sample cAMP (higher glucagon activity) translates to lower signal.

normal rats [2] = test: Stability assay: samples incubated at 37° C., then activity tested; format: in vivo, rat; details: FIG. 11; 150 μg/ml in 50 mM Tris buffer pH 8.0, 37° C., mild agitation and rotation; tested t=0, day 3, day 7
Procedure: Glucagon Activity Assays. The glycemic activities of glucagon analogues were tested (Ismail-Beigi ,Case Western Reserve University) in normal male rats (250-350 g) that were fasted for 4 h before the injection and not fed during the course of the experiment (4-5 rats per dose of glucagon in parallel). Glucagon or analogues were prepared (150 μg/ml in sterile 50 mM Tris-HCl buffer (pH 8.0)) and administered by subcutaneous injections (40.1 nmol/kg (˜50 ug/333 g rat)) in an injection volume of 200 μl/333 g rat. Rats were grouped according to their 2nd measured starting blood-glucose concentrations to ensure similar starting values at time=0. For in vivo dose-response studies a series of doses (40.1, 8.0, 1.6, 0.32, 0.064, and 0.013 nmol/kg) was tested in groups of 4-5 rats at each dose. Diluent volume was 200 μl/333 g rat. Experiments were repeated at least twice, and the results were averaged. The rise in blood glucose values were corrected by any changes observed in diluent-injected rats.
To test for stability of glucagon and its analogues, samples (150 μg/ml in 50 mM Tris-HCl buffer (pH 8.0)) were incubated at 37° C. with mild agitation and rotation. Samples were tested as described above after varying periods of incubation.

normal rats [3] = test: In vivo glucagon activity assay in normal rats; parameters: species or system rat; details: for in vivo glucagon activity (rise in blood glucose): subcutaneous injection
Procedure: Glucagon Activity Assays. […] Glucagon or analogues were prepared (150 μg/ml in sterile 50 mM Tris-HCl buffer (pH 8.0)) and administered by subcutaneous injections (40.1 nmol/kg (˜50 ug/333 g rat)) in an injection volume of 200 μl/333 g rat. Rats were grouped according to their 2nd measured starting blood-glucose concentrations to ensure similar starting values at time=0. For in vivo dose-response studies a series of doses (40.1, 8.0, 1.6, 0.32, 0.064, and 0.013 nmol/kg) was tested in groups of 4-5 rats at each dose. Diluent volume was 200 μl/333 g rat. Experiments were repeated at least twice, and the results were averaged. The rise in blood glucose values were corrected by any changes observed in diluent-injected rats.

STZ (diabetic) rats = test: In vivo assay in STZ (diabetic) rats, subcutaneous injection; parameters: species or system rat
Source text: FIG. 17 presents an in vivo assay done in STZ rats.
FIG. 18 presents another in vivo assay done in STZ rats. The four fusion proteins used in FIG. 17 were subcutaneously injected at doses of 23.8 nmol/kg per rat. […] In this study both fusion proteins carrying an active SCI analogue had similar activities.

[4] = pH 2.5, 37° C., constant agitation

Chain of glucagon receptor (P47871 26-477, species assumed): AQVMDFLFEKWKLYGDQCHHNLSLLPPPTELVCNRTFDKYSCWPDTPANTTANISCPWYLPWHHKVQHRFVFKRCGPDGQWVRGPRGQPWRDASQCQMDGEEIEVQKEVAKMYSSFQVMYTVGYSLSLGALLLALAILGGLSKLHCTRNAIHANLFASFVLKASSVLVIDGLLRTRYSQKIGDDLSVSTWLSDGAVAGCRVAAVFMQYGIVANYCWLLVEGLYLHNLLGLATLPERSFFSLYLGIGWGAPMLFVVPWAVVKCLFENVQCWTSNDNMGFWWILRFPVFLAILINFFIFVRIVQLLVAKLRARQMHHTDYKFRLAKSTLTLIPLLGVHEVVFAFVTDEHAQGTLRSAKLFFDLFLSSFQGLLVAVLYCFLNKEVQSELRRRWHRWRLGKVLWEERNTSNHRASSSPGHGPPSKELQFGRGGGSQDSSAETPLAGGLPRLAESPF

formation of amyloid-like fibrils [1]: formed amyloid-like fibrils | pEC50 (glucagon receptor): 7.03
Compound: CSCC[C@H](NC(=O)[C@H](CC(C)C)NC(=O)[C@H](Cc1c[nH]c2ccccc12)NC(=O)[C@H](CCC(N)=O)NC(=O)[C@@H](NC(=O)[C@H](Cc1ccccc1)NC(=O)[C@H](CC(=O)O)NC(=O)[C@H](CCC(N)=O)NC(=O)[C@H](C)NC(=O)[C@H](CCCN)NC(=O)[C@H](CCCN)NC(=O)[C@H](CO)NC(=O)[C@H](CC(=O)O)NC(=O)[C@H](CC(C)C)NC(=O)[C@H](Cc1ccc(O)cc1)NC(=O)[C@H](CCCN)NC(=O)[C@H](CO)NC(=O)[C@H](Cc1ccc(O)cc1)NC(=O)[C@H](CC(=O)O)NC(=O)[C@H](CO)NC(=O)[C@@H](NC(=O)[C@H](Cc1ccccc1)NC(=O)[C@@H](NC(=O)CNC(=O)[C@H](CCC(N)=O)NC(=O)[C@H](CO)NC(=O)[C@@H](N)Cc1c[nH]cn1)[C@@H](C)O)[C@@H](C)O)C(C)C)C(=O)N[C@@H](CC(N)=O)C(=O)N[C@H](C(=O)N[C@@H](CCC(=O)O)C(=O)N[C@@H](CCC(=O)O)C(=O)N[C@@H](CCCCN)C(=O)O)[C@@H](C)O [SEQ ID NO: 21, HSQGTFTSDYSOYLDSOOAQDFVQWLMNTEEK] (H-HSQGTFTSDYS[Orn]YLDS[Orn][Orn]AQDFVQWLMNTEEK-OH; N-terminus and C-terminus assumed)

biological activity after incubation (stability) (normal rats [2]): maintained full biological activity | time without fibril formation ([1]; FIG. 7, phosphate-buffered saline pH 7.4, 100 μM, 37° C., constant agitation): > 11 days | pEC50 (glucagon receptor): 6.90
Compound: CSCC[C@H](NC(=O)[C@H](CC(C)C)NC(=O)[C@H](Cc1c[nH]c2ccccc12)NC(=O)[C@H](CCC(N)=O)NC(=O)[C@@H](NC(=O)[C@H](Cc1ccccc1)NC(=O)[C@H](CC(=O)O)NC(=O)[C@H](CCC(N)=O)NC(=O)[C@H](C)NC(=O)[C@H](CCCN)NC(=O)[C@@H]1CCC(=O)NCCCC[C@H](NC(=O)[C@H](CCCN)NC(=O)[C@H](CO)NC(=O)[C@H](Cc2ccc(O)cc2)NC(=O)[C@H](CC(=O)O)NC(=O)[C@H](CO)NC(=O)[C@@H](NC(=O)[C@H](Cc2ccccc2)NC(=O)[C@@H](NC(=O)CNC(=O)[C@H](CCC(N)=O)NC(=O)[C@H](CO)NC(=O)[C@@H](N)Cc2c[nH]cn2)[C@@H](C)O)[C@@H](C)O)C(=O)N[C@@H](CC(C)C)C(=O)N[C@@H](CC(=O)O)C(=O)N[C@@H](CO)C(=O)N1)C(C)C)C(=O)N[C@@H](CC(N)=O)C(=O)N[C@H](C(=O)N[C@@H](CCC(=O)O)C(=O)N[C@@H](CCC(=O)O)C(=O)N[C@@H](CCCCN)C(=O)O)[C@@H](C)O [SEQ ID NO: 23, HSQGTFTSDYSOKLDSEOAQDFVQWLMNTEEK] (H-HSQGTFTSDYS[Orn]KLDSE[Orn]AQDFVQWLMNTEEK-OH; lactam 13-17; N-terminus and C-terminus assumed)
formation of amyloid-like fibrils [1]: did not form amyloid-like fibrils within the duration of the experiment | rise in blood glucose levels (normal rats [3]; FIG. 12, 8 nmol/kg rat dose): minor raise | rise in blood glucose levels, dose-response (normal rats [3]; FIG. 12, doses 0.32, 1.6, 8 and 40 nmol/kg rat): only at the maximum dose | in vivo glucagon activity (rise in blood glucose) (normal rats [3]; FIGS. 9, 10, 13): maximal activity | in vivo glucagon activity (rise in blood glucose) (normal rats [3]; FIGS. 9, 10, 13, listed as [Lys13, Glu17]-glucagon-EEK lactam): active

biological activity after incubation (stability) (normal rats [2]): maintained full biological activity
Compound: CC(C)C[C@H](NC(=O)[C@H](Cc1c[nH]c2ccccc12)NC(=O)[C@H](CCCCN)NC(=O)[C@@H](NC(=O)[C@H](Cc1ccccc1)NC(=O)[C@H](CCC(=O)O)NC(=O)[C@H](CCC(=O)O)NC(=O)[C@H](C)NC(=O)[C@H](CCCNC(=N)N)NC(=O)[C@H](C)NC(=O)C(C)(C)NC(=O)[C@H](CC(=O)O)NC(=O)[C@H](CC(C)C)NC(=O)[C@H](Cc1ccc(O)cc1)NC(=O)[C@H](CCCCN)NC(=O)[C@H](CO)NC(=O)[C@H](Cc1ccc(O)cc1)NC(=O)[C@H](CC(=O)O)NC(=O)[C@H](CO)NC(=O)[C@@H](NC(=O)[C@H](Cc1ccccc1)NC(=O)[C@@H](NC(=O)CNC(=O)[C@H](CCC(N)=O)NC(=O)[C@H](CO)NC(=O)[C@@H](N)Cc1c[nH]cn1)[C@@H](C)O)[C@@H](C)O)C(C)C)C(=O)N[C@@H](CCC(=O)O)C(=O)N[C@@H](CO)C(=O)N[C@H](C(=O)O)[C@@H](C)O [dasiglucagon, reference compound]

Compound: FVNQHLCGSHLVEALYLVCGEOGFFYTPETEEGPOOGIVEQCCQSICSLEQLENYCN (FVNQHLCGSHLVEALYLVCGEXGFFYTPETEEGPXXGIVEQCCQSICSLEQLENYCN; ornithine residues; insulin peptide analog; (22)..(22) Xaa at position 22 is Orn.; (35)..(35) Xaa at position 35 is Orn.; (36)..(36) Xaa at position 36 is Orn.) [SEQ ID NO: 71, 57-residue single-chain insulin (SCI) analogue lacking internal tryptic sites]
formation of amyloid-like fibrils [1]: did not form amyloid-like fibrils within the duration of the experiment | biological activity relative to insulin Lispro (KP-insulin) (STZ (diabetic) rats; FIG. 14, STZ (diabetic) rats, 30-μg dose of SCI vs 15-μg dose of KP-insulin): slightly higher activity than a 15-μg dose of KP-insulin

Compound: HSQGTFTSDYSKKLDSERAQDFVQWLMNT (lactam 13-17) [SEQ ID NO: 10, a lactam bridge connects the side chains of variant residues K13 and E17]
in vivo glucagon activity (rise in blood glucose) (normal rats [3]; FIGS. 9, 10, 13, listed as [Lys13, Glu17]-glucagon lactam): active

Compound: HSQGTFTSDYSKKLDSERAQDFVQWLMNT (lactam 13-17) [[Lys13, Glu17]-Glucagon linear, linear [Lys13, Glu17] analogue without Orn substitutions or C-terminal EEK extension]
in vivo glucagon activity (rise in blood glucose) (normal rats [3]; FIGS. 9, 10, 13): only analogue that is active, other than wild-type glucagon, was the [Lys13, Glu17]-glucagon lactam

Compound: HSQGTFTSDYSKYLDSRRAQDFVQWLMNTK [SEQ ID NO: 3]
fibril formation [1, 4]: delay fibril formation

Compound: HSQGTFTSDYSKYLDSRRAQDFVQWLMNTO [SEQ ID NO: 5]
fibril formation [1, 4]: delay fibril formation | fibril formation ([1]; pH 7.4, 37° C., constant agitation): delay fibril formation

Compound: HSQGTFTSDYSKYLDSRRAQDFVQWLMNTR (glucagon peptide analog) [SEQ ID NO: 2]
fibril formation [1, 4]: delay fibril formation

potency (cAMP assay) (glucagon receptor; FIG. 8, relative to the lactam analogue): markedly diminished potency
Compound: HSQGTFTSDYSOKLDSEOAQDFVQWLMNTEEK (HSQGTFTSDYS[Orn]KLDSE[Orn]AQDFVQWLMNTEEK; lactam 13-17) [[Lys13, Glu17]-glucagon-EEK linear, includes the [Lys13-Glu17] substitutions but not the side-chain lactam bond]
in vivo glucagon activity (rise in blood glucose) (normal rats [3]; FIGS. 9, 10, 13): inactive

Compound: HSQGTFTSDYSOYLDSOOAQDFV[D-Cys]WLCNTEEK [[D-Cys24-Cys27] L]
in vivo glucagon activity (rise in blood glucose) (normal rats [3]; FIGS. 9, 10, 13): only analogue that is active, other than wild-type glucagon, was the [Lys13, Glu17]-glucagon lactam

Compound: HSQGTFTSKYSOELDSOOAQDFVQWLMNTEEK (HSQGTFTSKYS[Orn]ELDS[Orn][Orn]AQDFVQWLMNTEEK; lactam 9-13) [SEQ ID NO: 24]
in vivo glucagon activity (rise in blood glucose) (normal rats [3]; FIGS. 9, 10, 13): inactive

Compound: HSQGTFTSKYSOELDSOOAQDFVQWLMNTEEKFVNQHLCGSHLVEALYLVCGEOGFFYTPETEEGPOOGIVEQCCQSICSLEQLENYCN [SEQ ID NO: 75]
activity at 23.8 nmol/kg relative to the 12-nmol/kg rat doses (STZ (diabetic) rats; FIG. 18 vs FIG. 17, STZ rats): increased activity at the increased dose

Compound: human insulin [reference compound]
formation of amyloid-like fibrils [1]: formed amyloid-like fibrils

Compound: insulin Lispro [reference compound]
formation of amyloid-like fibrils [1]: formed amyloid-like fibrils
